pIC50: −log10 of the molar value. Like-named read-outs stand apart in the source and are kept apart here. Blank lines part the entries; values can stand above or below the molecule they belong to.
Columns and labels:
[1] = target: T1, His-ZZ-DYRK1A kinase domain (DYRK1A protein) (Homo sapiens, UniProt Q13627); test: luminescent kinase assay after transient heating; format: biochemical
[2] = target: T1, His-ZZ-DYRK1A kinase domain (DYRK1A protein); test: biochemical; conditions: read-out: kon
[3] = target: T1, His-ZZ-DYRK1A kinase domain (DYRK1A protein); test: biochemical; conditions: read-out: koff
[4] = target: T2, His-ZZ-DYRK1B kinase domain (DYRK1B protein) (Homo sapiens, UniProt Q9Y463); conditions: read-out: DYRK1B –; inhibitor
[5] = target: T2, His-ZZ-DYRK1B kinase domain (DYRK1B protein); conditions: read-out: DYRK1B Transient heating; inhibitor
[6] = target: T2, His-ZZ-DYRK1B kinase domain (DYRK1B protein); test: biochemical; conditions: read-out: kon
[7] = target: T2, His-ZZ-DYRK1B kinase domain (DYRK1B protein); test: biochemical; conditions: read-out: koff
[8] = target: T2, His-ZZ-DYRK1B kinase domain (DYRK1B protein); test: luminescent kinase assay after transient heating; format: biochemical; conditions: […] °C […] sec heating with compound, then ATP […], DYRKtide […], pH […]
[9] = target: T1, His-ZZ-DYRK1A kinase domain (DYRK1A protein); conditions: read-out: DYRK1A –; without transient heating; inhibitor
[10] = target: T1, His-ZZ-DYRK1A kinase domain (DYRK1A protein); conditions: read-out: DYRK1A Transient heating; with transient heating (20 sec); inhibitor
[11] = target: T2, His-ZZ-DYRK1B kinase domain (DYRK1B protein); conditions: read-out: DYRK1B Transient heating; with transient heating (20 sec); inhibitor
[12] = target: T2, His-ZZ-DYRK1B kinase domain (DYRK1B protein); conditions: read-out: DYRK1B –; without transient heating; inhibitor

SMILES: COc1ccc(/C=C2\SC(=S)NC2=O)cc1C#C[Si](C)(c1ccccc1)c1ccccc1 [compound 2, dp-FINDY]
pIC50 [1]: 5.59
kon [2]: 0.28 M⁻¹ s⁻¹
koff [3]: 2.2e-07 s⁻¹
pIC50 [4]: < 4.49
pIC50 [5]: 5.60
kon [6]: 200 M⁻¹ s⁻¹
koff [7]: 0.00012 s⁻¹

SMILES: CCOc1cc(/C=C2\SC(=S)NC2=O)ccc1O [compound 5, RD0392]
pIC50 [4]: 5.44
pIC50 [5]: 5.46

SMILES: C#Cc1cc(/C=C2\SC(=S)NC2=O)ccc1OC [compound 11, RD0448]
pIC50 [8]: 4.80
pIC50 [1]: 4.42
pIC50 [4]: 4.28

SMILES: C#Cc1cc(/C=C2\SC(=S)NC2=O)ccc1O [compound 12, RD0562]
pIC50 [4]: 4.64
pIC50 [5]: 4.64

The next lines start with the values.

pIC50 [5]: 4.85
SMILES: COc1ccc(/C=C2\NC(=S)NC2=O)cc1C#C[Si](C)(c1ccccc1)c1ccccc1 [compound 4, RD1408]

pIC50 [4]: 5.01
pIC50 [5]: 4.77
SMILES: COc1ccc(/C=C2\SC(=S)NC2=O)cc1 [compound 13, RD1486]

pIC50 [9]: < 4.49
pIC50 [10]: 5.31
SMILES: COc1ccc(/C=C2\SC(=S)NC2=O)cc1/C=C/[Si](C)(C)C [dFINDY]

pIC50 [9]: < 4.49
pIC50 [10]: 5.39
SMILES: COc1ccc(/C=C2\SC(=S)NC2=O)cc1/C=C/C1CCCCC1 [dscy-dFINDY]

pIC50 [11]: 5.13
pIC50 [9]: < 4.49
pIC50 [10]: < 4.49
SMILES: COc1ccc(/C=C2\SC(=S)NC2=O)cc1/C=C/C(C)(C)C [dstb-dFINDY]

pIC50 [12]: < 4.49
pIC50 [11]: 5.24
SMILES: COc1ccc(/C=C2\SC(=S)NC2=O)cc1C#C[Si](c1ccccc1)(c1ccccc1)c1ccccc1 [tp-FINDY]

pIC50 [12]: < 4.49
pIC50 [11]: 5.34
SMILES: COc1ccc(/C=C2\SC(=S)NC2=O)cc1C#C[Si]([Si](C)(C)C)([Si](C)(C)C)[Si](C)(C)C [ts-FINDY]

Reference: doi:10.1101/2025.01.15.632643v1 (biorxiv, 2025)
